Tests used:
Assay type in all cases: cell-based
[1] = tested on: Ljungan virus strain 145; assay: CPE inhibition in mammalian cell culture, LV145; set-up: inhibition: dose or concentration left out as unconfirmed; conditions: Parechovirus B; for inhibition: Conc.; for inhibition / inhibition at 100 µM: read-out: antiviral effect, LV145; for inhibition at 100 µM: Conc. 0.1 mM
[2] = tested on: coxsackie B virus strain 2; assay: CPE inhibition in mammalian cell culture, Cox-B2; set-up: inhibition: dose or concentration left out as unconfirmed; conditions: read-out: antiviral effect, B2
[3] = tested on: encephalomyocarditis virus; assay: CPE inhibition in mammalian cell culture, EMCV; set-up: inhibition: dose or concentration left out as unconfirmed; conditions: Cardiovirus A, read-out: antiviral effect, EMCV; for inhibition: Conc.; for inhibition at 100 µM: Conc. 0.1 mM
[4] = tested on: coxsackie B virus strain 3; assay: CPE inhibition in mammalian cell culture, Cox-B3; set-up: inhibition: dose or concentration left out as unconfirmed; conditions: for inhibition at 0.01 µM: read-out: % inh.
[5] = tested on: coxsackie B virus strain 4; assay: CPE inhibition in mammalian cell culture, Cox-B4; set-up: inhibition: dose or concentration left out as unconfirmed; conditions: read-out: antiviral effect, B4
[6] = tested on: Enterovirus strain 71; assay: CPE inhibition in mammalian cell culture, EV71; set-up: inhibition: dose or concentration left out as unconfirmed; conditions: for inhibition: Conc.; for inhibition / inhibition at 100 µM: read-out: antiviral effect, EV71; for inhibition at 100 µM: Conc. 0.1 mM
[7] = tested on: polio virus strain 1; assay: microbe, parasite or virus in culture; set-up: inhibition: dose or concentration left out as unconfirmed; conditions: read-out: antiviral effect, Polio 1
[8] = tested on: coxsackie B virus strain 1; assay: CPE inhibition in mammalian cell culture, Cox-B1; set-up: inhibition: dose or concentration left out as unconfirmed; conditions: for inhibition at 10000 µM / inhibition / inhibition at 1000 µM: read-out: antiviral effect, B1
[9] = tested on: Ljungan virus strain 012; assay: CPE inhibition in mammalian cell culture, LV012; conditions: Parechovirus B, read-out: antiviral effect, LV012; for inhibition at 10 µM: Conc. 10 µM; for inhibition at 100 µM: Conc. 0.1 mM; for inhibition at 1 µM: Conc. 1 µM
[10] = tested on: coxsackie B virus strain 5; assay: CPE inhibition in mammalian cell culture, Cox-B5; set-up: inhibition: dose or concentration left out as unconfirmed; conditions: read-out: antiviral effect, B5
[11] = tested on: Enterovirus strain 30; assay: CPE inhibition in mammalian cell culture, EV30; conditions: read-out: antiviral effect, EV30; for inhibition at 10 µM: Conc. 10 µM; for inhibition at 100 µM: Conc. 0.1 mM; for inhibition at 1 µM: Conc. 1 µM
[12] = tested on: Porcine Tescho virus; assay: microbe, parasite or virus in culture; set-up: dose or concentration left out as unconfirmed; conditions: Conc.; read-out: antiviral effect, PTV
[13] = tested on: Human parechovirus strain 1; assay: CPE inhibition in mammalian cell culture, HPeV-1; conditions: Parechovirus A, read-out: antiviral effect, HPeV-1; for inhibition at 10 µM: Conc. 10 µM; for inhibition at 100 µM: Conc. 0.1 mM
[14] = tested on: Enterovirus strain 6; assay: microbe, parasite or virus in culture; set-up: inhibition: dose or concentration left out as unconfirmed; conditions: for inhibition: read-out: antiviral effect, EV6
[15] = tested on: EV68; assay: CPE inhibition in mammalian cell culture, EV68; set-up: antiviral effect, EV68: unit of the concentration uncertain

| SMILES | inhibition [1] [%] | inhibition at 10000 µM [2] [%] | inhibition [3] [%] | inhibition at 10000 µM [5] [%] | inhibition [6] [%] | inhibition at 10000 µM [8] [%] | inhibition at 10 µM [9] [%] | inhibition at 100 µM [1] [%] | inhibition [2] [%] | inhibition at 100 µM [3] [%] | inhibition ([4]; read-out: antiviral effect, B3) [%] | inhibition [5] [%] | inhibition at 100 µM [6] [%] | inhibition [7] [%] | inhibition [8] [%] | inhibition at 100 µM [9] [%] | inhibition [10] [%] | inhibition at 100 µM [11] [%] | inhibition [14] [%] | antiviral effect, EV68 ([15]; Conc. 0.1 (unit uncertain)) [%] | further results |
| --- | --- | --- | --- | --- | --- | --- | --- | --- | --- | --- | --- | --- | --- | --- | --- | --- | --- | --- | --- | --- | --- |
| CC(C)c1cc(NCc2ccccc2)n2ncc(-c3ccccc3)c2n1 [Ex. 4, N-benzyl-5-isopropyl-3-phenyl-pyrazolo[1,5-a]pyrimidin-7-amine] | 61 | 0 | 81 | 53 | 69 | 36 | 28 | – | – | – | – | – | – | – | – | – | – | – | – | – | inhibition at 10000 µM ([4]; read-out: antiviral effect, B3): 0%; inhibition at 2.5 µM ([6]; EV71, Conc. 2.5 μM): 46%; inhibition at 10000 µM [7]: 17%; inhibition at 10000 µM [10]: 0%; inhibition at 10 µM [11]: 0%; inhibition [12]: 87%; inhibition at 10 µM [13]: 7% |
| COc1ccc(-c2c(C)nn3c(NCc4ccc(C)cc4)cc(C)nc23)cc1OC [Ex. 6, 3-(3,4-dimethoxyphenyl)-2,5-dimethyl-N-(p-tolylmethyl)pyrazolo[1,5-a]pyrimidin-7-amine] | 63 | 82 | 0 | 69 | 37 | 35 | 28 | – | – | – | – | – | – | – | – | – | – | – | – | – | inhibition at 5 µM ([1]; LV145, Conc. 5.0 μM): 56%; inhibition at 10000 µM [7]: 19%; inhibition at 10000 µM [10]: 54%; inhibition at 10 µM [11]: 44%; inhibition [12]: 62%; inhibition at 10 µM [13]: 60% |
| COc1ccc(-c2c(C)nn3c(NCC(C)c4ccccc4)cc(C)nc23)cc1OC (stereo not drawn) [Ex. 10, 3-(3,4-dimethoxyphenyl)-2,5-dimethyl-N-(2-phenylpropyl)pyrazolo[1,5-a]pyrimidin-7-amine] | 41 | 97 | 25 | 94 | 58 | 79 | 0 | – | – | – | – | – | – | – | – | – | – | – | – | – | inhibition at 2.5 µM ([1]; LV145, Conc. 2.5 μM): 69%; inhibition at 10000 µM [10]: 92%; inhibition at 10 µM [11]: 88%; inhibition [12]: 43%; inhibition at 10 µM [13]: 3% |
| COc1ccc(-c2c(C)nn3c(NCc4ccncc4)cc(C)nc23)cc1OC [Ex. 75, 3-(3,4-dimethoxyphenyl)-2,5-dimethyl-N-(4-pyridylmethyl)pyrazolo[1,5-a]pyrimidin-7-amine] | – | – | – | – | – | – | – | 0 | 100 | 0 | 89 | 100 | 85 | 100 | 100 | 0 | 98 | 100 | 90 | 31 | inhibition at 0.01 µM [4]: 85%; inhibition at 100 µM [13]: 0% |
| COc1ccc(CNc2cc(C)nc3c(-c4ccc(OC)c(OC)c4)c(C)nn23)cn1 [Ex. 79, 3-(3,4-dimethoxyphenyl)-N-[(6-methoxy-3-pyridyl)methyl]-2,5-dimethyl-pyrazolo[1,5-a]pyrimidin-7-amine] | – | – | – | – | – | – | – | 0 | 84 | 0 | 87 | 78 | 88 | 79 | 88 | 0 | 98 | 10 | 0 | 46 | inhibition at 1 µM ([15]; EV68, Conc. 1 μM): 51%; inhibition at 100 µM [13]: 0% |
| COc1ccc(-c2c(C)nn3c(NCc4ccc(NS(C)(=O)=O)cc4)cc(C)nc23)cc1OC [Ex. 80, N-[4-[[[3-(3,4-dimethoxyphenyl)-2,5-dimethyl-pyrazolo[1,5-a]pyrimidin-7-yl]amino]methyl]phenyl]methanesulfonamide] | – | – | – | – | – | – | – | – | – | – | – | – | – | – | – | – | – | – | – | – | inhibition at 1000 µM [2]: 96%; inhibition at 1000 µM ([4]; read-out: antiviral effect, B3): 78%; inhibition at 1000 µM [5]: 78%; inhibition at 1000 µM [7]: 85%; inhibition at 1000 µM [8]: 78%; inhibition at 1 µM [9]: 0%; inhibition at 1000 µM [10]: 97%; inhibition at 1 µM [11]: 90%; inhibition at 1 µM ([14]; read-out: % inh.): 93%; antiviral effect, EV68 ([15]; Conc. 1 (unit uncertain)): 30%; inhibition at 1 µM ([13]; Conc. 1 µM): 0% |
| COc1ccc(-c2c(C)nn3c(NCc4ccc(O)cc4)cc(C)nc23)cc1OC [Ex. 81, 4-[[[3-(3,4-dimethoxyphenyl)-2,5-dimethyl-pyrazolo[1,5-a]pyrimidin-7-yl]amino]methyl]phenol] | – | – | – | – | – | – | – | 0 | 88 | 0 | 87 | 77 | 86 | 89 | 85 | 0 | 81 | 97 | 62 | 29 | inhibition at 0.01 µM ([8]; read-out: % inh.): 76%; inhibition at 100 µM [13]: 0% |
| COc1ccc(-c2c(C)nn3c(NCc4cccc(S(C)(=O)=O)c4)cc(C)nc23)cc1OC [Ex. 82, 3-(3,4-dimethoxyphenyl)-2,5-dimethyl-N-[(3-methylsulfonylphenyl)methyl]pyrazolo[1,5-a]pyrimidin-7-amine] | – | – | – | – | – | – | – | 0 | 98 | 0 | 91 | 100 | – | 100 | 95 | 0 | 89 | 94 | 89 | 24 | inhibition at 0.01 µM [4]: 82% |
| COc1ccc(-c2cnn3c(NCc4cccc(S(C)(=O)=O)c4)cc(C)nc23)cc1OC [Ex. 101, 3-(3,4-dimethoxyphenyl)-5-methyl-N-[(3-methylsulfonylphenyl)methyl]pyrazolo[1,5-a]pyrimidin-7-amine] | – | – | – | – | – | – | – | 0 | 99 | 0 | 90 | – | 99 | 100 | – | 0 | 29 | 89 | 44 | – | inhibition at 0.1 µM ([6]; EV71, Conc. 0.1 μM): 99% |
| COc1ccc(-c2c(C)nn3c(NCc4ccc(F)cc4)cc(C(C)C)nc23)cc1OC [Ex. 111, 3-(3,4-dimethoxyphenyl)-N-[(4-fluorophenyl)methyl]-5-isopropyl-2-methyl-pyrazolo[1,5-a]pyrimidin-7-amine] | – | – | – | – | – | – | – | – | – | – | – | – | – | – | – | – | – | – | – | – | inhibition at 1000 µM [2]: 96%; inhibition at 1000 µM ([4]; read-out: antiviral effect, B3): 100%; inhibition at 1000 µM [5]: 98%; inhibition at 1000 µM [7]: 100%; inhibition at 0.1 µM ([8]; read-out: % inh.): 68%; inhibition at 1000 µM [8]: 97%; inhibition at 1 µM [9]: 0%; inhibition at 1000 µM [10]: 99%; inhibition at 1 µM [11]: 80%; antiviral effect, EV68 ([15]; Conc. 1 (unit uncertain)): 40% |

From US9963455B2, “Pyrazolo[1,5-a]pyrimidines as antiviral compounds” (Curovir AB, priority 2014, dated 2018)
